# Target: T1, recombinant human MMP13 catalytic domain (CD) (Homo sapiens, UniProt P45452)
# T1 construct: catalytic domain (CD) construct encompassing residues 20-274 (SWISS-PROT P45452); made in house
# Test: MMP-13 catalytic domain FRET enzyme assay
# Format: biochemical
# Details: recombinant human MMP-13 catalytic domain
# Outline: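 Human MMP-13 catalytic domain (res 20-274, E. coli-expressed), 0.4 nM, cleaving FRET peptide (0.25 μM) in Tris pH 7.5/CaCl2/NaCl/Brij 35, 5% DMSO, 60 min RT; EDTA-quenched, fluorescence 485/535 nm. IC50 from sigmoidal fit of % inhibition. Some compounds also run on APMA-activated full-length MMP13 (2 nM).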
row,Structure (SMILES),IC50 [nM]
1,Cc1nc(C(=O)NCc2ccc(F)c(Cl)c2)cc(C2=NO[C@@H]([C@H]3CO[C@H](CO)CO3)C2)n1 [drawing 1070],> 1000
2,COc1cc(CNC(=O)c2cc(C3=NOC([C@H]4CC[C@H](NC(=O)NC(CO)CO)CC4)C3)nc(C)n2)ccc1F (stereo partly drawn),10 to 100
3,COc1cc(CNC(=O)c2cc(C3=NOC(C4CCN(C(=O)C5CCC5)CC4)C3)nc(C)n2)ccc1F (stereo not drawn),10 to 100
4,Cc1nc(C(=O)NCc2ccc(F)c(F)c2)cc(C2=NO[C@H]([C@H]3CO[C@H](CO)CO3)C2)n1 [drawing 952],10 to 100
5,CC(=O)N[C@H]1CC[C@H]([C@H]2CC(c3cc(C(=O)NCc4ccc5c(c4)NC(=O)CO5)nc(C)n3)=NO2)CC1,< 10
6,COc1cc(CNC(=O)c2cc(C3=NOC(C4CCN(C(=O)CS(C)(=O)=O)CC4)C3)nc(C)n2)ccc1F (stereo not drawn),10 to 100
7,Cc1nc(C(=O)NCc2ccc(=O)n(C)c2)cc(C2=NO[C@@H]([C@H]3CO[C@H](CO)CO3)C2)n1,100 to 1000
8,Cc1nc(C(=O)NCc2ccc(F)c(C)c2)cc(C2=NOC([C@H]3CC[C@H](NC(=O)[C@H](C)O)CC3)C2)n1 (stereo partly drawn),< 10
9,CC(=O)N[C@H]1CC[C@H](C2CC(c3cc(C(=O)NCc4ccc(F)c(F)c4)nc(C)n3)=NO2)CC1 (stereo partly drawn),10 to 100
10,Cc1nc(C(=O)NCc2cccc(F)c2)cc(C2=NO[C@H]([C@H]3CO[C@H](CO)CO3)C2)n1,> 1000
11,Cc1nc(C(=O)NCc2ccc(F)c(C)c2)cc(C2=NO[C@H]([C@H]3CC[C@H](NC(=O)[C@H](C)O)CC3)C2)n1,< 10
12,COc1cc(CNC(=O)c2cc(C3=NOC(C4CCN(C(=O)N(C)C)CC4)C3)nc(C)n2)ccc1F (stereo not drawn) [drawing 1061],< 10
13,Cc1cccc(CNC(=O)c2cc(C3=NO[C@@H]([C@H]4CO[C@H](CO)CO4)C3)nc(C)n2)c1,> 1000
14,Cc1nc(C(=O)NCc2ccc(F)c(Cl)c2)cc(C2=NO[C@H]([C@H]3CO[C@@H](CO)CO3)C2)n1 [drawing 924],> 1000
15,COc1cc(CNC(=O)c2cc(C3=NOC(C4CCN(C(=O)C(C)C)CC4)C3)nc(C)n2)ccc1F (stereo not drawn),10 to 100
16,CC(=O)N[C@H]1CC[C@H](C2CC(c3cc(C(=O)NCc4ccc(F)c(C)c4)nc(C)n3)=NO2)CC1 (stereo partly drawn),< 10
17,COc1cc(CNC(=O)c2cc(C3=NOC(C4CCC(O)CC4)C3)nc(C)n2)ccc1F (stereo not drawn),< 10
18,COc1cc(CNC(=O)c2cc(C3=NOC(C(=O)N4CCOCC4)C3)nc(C)n2)ccc1F (stereo not drawn),> 1000

row,Structure (SMILES),IC50 [nM]
1,COc1cc(CNC(=O)c2cc(C3=NOC(CC4CCN(S(C)(=O)=O)CC4)C3)nc(C)n2)ccc1F (stereo not drawn),10 to 100
2,COc1cc(CNC(=O)c2cc(C3=NO[C@H]([C@H]4CO[C@H](C(N)=O)CO4)C3)nc(C)n2)ccc1F,< 10
3,Cc1nc(C(=O)NCc2ccc(F)c(Cl)c2)cc(C2=NO[C@H]([C@H]3CC[C@H](NC(=O)[C@H](C)O)CC3)C2)n1,< 10
4,COc1cc(CNC(=O)c2cc(C3=NOC([C@H]4CC[C@H](NC(C)=O)CC4)C3)nc(C)n2)ccc1F (stereo partly drawn),< 10
5,CC(=O)N1CCC(C2CC(c3cc(C(=O)NCc4ccc(F)c(Cl)c4)nc(C)n3)=NO2)CC1 (stereo not drawn),10 to 100
6,CCNC(=O)N1CCC(C2CC(c3cc(C(=O)NCc4ccc(F)c(OC)c4)nc(C)n3)=NO2)CC1 (stereo not drawn) [drawing 877],10 to 100
7,COc1cc(CNC(=O)c2cc(C3=NOC([C@H]4CC[C@H](NC(=O)N(C)CC(O)CO)CC4)C3)nc(C)n2)ccc1F (stereo partly drawn),< 10
8,COc1cc(CNC(=O)c2cc(C3=NOC(C4CCN(C(=O)Nc5nccs5)CC4)C3)nc(C)n2)ccc1F (stereo not drawn),10 to 100
9,COc1cc(CNC(=O)c2cc(C3=NOC(C4CCN(C(=O)C(C)(C)O)CC4)C3)nc(C)n2)ccc1F (stereo not drawn),10 to 100
10,COc1cc(CNC(=O)c2cc(C3=NOC([C@H]4CC[C@H](NC(=O)CC#N)CC4)C3)nc(C)n2)ccc1F (stereo partly drawn),< 10
11,COc1cc(CNC(=O)c2cc(C3=NOC(C4CCN(C(=O)NC(C)C)CC4)C3)nc(C)n2)ccc1F (stereo not drawn),10 to 100
12,CC(=O)N[C@H]1CC[C@H](C2CC(c3cc(C(=O)NCc4ccnc5ccccc45)nc(C)n3)=NO2)CC1 (stereo partly drawn),100 to 1000
13,Cc1nc(C(=O)NCc2ccc(=O)n(C)c2)cc(C2=NO[C@H]([C@H]3CO[C@H](CO)CO3)C2)n1,10 to 100
14,Cc1nc(C(=O)NCc2ccc3oc(C)nc3c2)cc(C2=NO[C@@H]([C@H]3CO[C@H](CO)CO3)C2)n1,> 1000
15,CCS(=O)(=O)N1CCC(C2CC(c3cc(C(=O)NCc4ccc(F)c(OC)c4)nc(C)n3)=NO2)CC1 (stereo not drawn),< 10
16,Cc1nc(C(=O)NCc2ccncc2)cc(C2=NO[C@@H]([C@H]3CO[C@H](CO)CO3)C2)n1,> 1000
17,CC(=O)N[C@H]1CC[C@H]([C@H]2CC(c3cc(C(=O)NCc4ccc(F)c(C)c4)nc(C)n3)=NO2)CC1,10 to 100
18,CC(=O)N[C@H]1CC[C@H]([C@@H]2CC(c3cc(C(=O)NCc4ccc(F)c(C)c4)nc(C)n3)=NO2)CC1,< 10

# Now from value to compound:
row,IC50 [nM],Structure (SMILES)
1,< 10,COc1cc(CNC(=O)c2cc(C3=NOC(c4ccc(-c5nc(C)no5)nn4)C3)nc(C)n2)ccc1F (stereo not drawn)
2,10 to 100,COc1cccc(CNC(=O)c2cc(C3=NOC(c4ccccn4)C3)nc(C)n2)c1 (stereo not drawn)
3,< 10,COc1cc(CNC(=O)c2cc(C3=NOC(c4ccc(C#N)nn4)C3)nc(C)n2)ccc1F (stereo not drawn)
4,10 to 100,Cc1nc(C(=O)NCc2ccc(F)cc2)cc(C2=NO[C@H]([C@H]3CO[C@@H](CO)CO3)C2)n1
5,> 1000,COc1cc([C@@H](C)NC(=O)c2cc(C3=NOC(c4ccccc4)C3)nc(C)n2)ccc1F (stereo partly drawn)
6,100 to 1000,COc1ccc(CNC(=O)c2cc(C3=NOC(C)(c4ccc(OCCO)cc4)C3)nc(C)n2)cc1 (stereo not drawn)
7,10 to 100,CNC(=O)c1ccc(C2CC(c3cc(C(=O)NCc4ccc(F)c(OC)c4)nc(C)n3)=NO2)nc1 (stereo not drawn)
8,10 to 100,COc1cc(CNC(=O)c2cc(C3CC(c4ccc(OCCO)cc4)=NO3)nc(C)n2)ccc1F (stereo not drawn)
9,> 1000,Cc1nc(C(=O)NCc2ccc(F)cc2)cc(C2=NO[C@@H]([C@@H]3CO[C@@H](CO)CO3)C2)n1
10,10 to 100,Cc1nc(C(=O)NCc2ccc(F)cc2)cc(C2=NOC(c3ccc(C#N)nn3)C2)n1 (stereo not drawn)
11,< 10,COc1cc(CNC(=O)c2cc(C3=NOC(c4ccc(CN5CCS(=O)(=O)CC5)cc4)C3)nc(C)n2)ccc1F (stereo not drawn)
12,10 to 100,COc1cc(CNC(=O)c2cc(C3=NOC(c4ccc(=O)n(C)n4)C3)nc(C)n2)ccc1F (stereo not drawn)
13,> 1000,COc1cc([C@H](C)NC(=O)c2cc(C3=NOC(c4ccccc4)C3)nc(C)n2)ccc1F (stereo partly drawn)
14,< 10,COc1cc(CNC(=O)c2cc(C3=NOC(c4ccc(C(N)=O)cc4)C3)nc(C)n2)ccc1F (stereo not drawn)
15,< 10,COc1cc(CNC(=O)c2cc(C3=NOC([C@H]4CC[C@H](C(=O)NCCO)CC4)C3)nc(C)n2)ccc1F (stereo partly drawn)
16,< 10,COc1cc(CNC(=O)c2cc(C3=NOC(c4ccc(C(C)=O)cn4)C3)nc(C)n2)ccc1F (stereo not drawn)
17,10 to 100,COc1cc(CNC(=O)c2cc(C3=NOC(c4ncccn4)C3)nc(C)n2)ccc1F (stereo not drawn)
18,100 to 1000,COc1ccc(CNC(=O)c2cc(C3=NOC(C4CCN(C(C)=O)CC4)C3)nc(C)n2)cc1 (stereo not drawn)
19,< 10,COc1cc(CNC(=O)c2cc(C3=NOC(c4ccc(=O)n(CC(=O)NC5CC5)c4)C3)nc(C)n2)ccc1F (stereo not drawn)
20,< 10,COc1cc(CNC(=O)c2cc(C3=NOC(c4ccc(CO)cc4)C3)nc(C)n2)ccc1F (stereo not drawn)
21,10 to 100,COc1ccc(CNC(=O)c2cc(C3=NOC(c4ccccc4)C3)nc(C)n2)cc1 (stereo not drawn)

row,IC50 [nM],Structure (SMILES)
1,10 to 100,COc1cc(CNC(=O)c2cc(C3=NO[C@@H](c4ccc(=O)n(C5CC5)c4)C3)nc(C)n2)ccc1F
2,< 10,Cc1nc(C(=O)NCc2ccc(F)c(C)c2)cc(C2=NOC(c3ccc(=O)n(C)c3)C2)n1 (stereo not drawn) [drawing 1015]
3,< 10,Cc1nc(C(=O)NCc2ccc(F)c(Cl)c2)cc(C2=NOC(c3ccc(=O)n(C)c3)C2)n1 (stereo not drawn)
4,< 10,Cc1nc(C(=O)NCc2ccc(F)c(F)c2)cc(C2=NO[C@H](c3ccc(=O)n(C)c3)C2)n1
5,100 to 1000,COc1ccc(CNC(=O)c2cc(C3=NOC(C)(c4ccc(CO)cc4)C3)nc(C)n2)cc1 (stereo not drawn)
6,10 to 100,COc1cc(CNC(=O)c2cc(C3=NOC(c4cnc5c(cnn5C)c4)C3)nc(C)n2)ccc1F (stereo not drawn)
7,100 to 1000,COc1ccc(CNC(=O)c2cc(C3=NOC(c4ccc(N5CCCCC5)cc4)C3)nc(C)n2)cc1 (stereo not drawn)
8,10 to 100,COc1cc(CNC(=O)c2cc(C3=NOC(c4cn[nH]c4)C3)nc(C)n2)ccc1F (stereo not drawn)
9,10 to 100,COc1cc(CNC(=O)c2cc(C3=NNC(c4cccnc4)C3)nc(C)n2)ccc1F (stereo not drawn)
10,10 to 100,COc1cc(CNC(=O)c2cc(C3=NO[C@H]([C@@H]4CO[C@@H](CO)CO4)C3)nc(C)n2)ccc1F
11,100 to 1000,COc1ccc(CNC(=O)c2cc(C3=NOC(C)(c4ccc(Cl)cc4)C3)ccn2)cc1 (stereo not drawn)
12,10 to 100,COc1ccc(CNC(=O)c2cc(C3=NO[C@@H](c4ccc(OCCO)cc4)C3)nc(C)n2)cc1
13,10 to 100,COc1cc(CNC(=O)c2cc(C3=NOC(c4ccc(=O)n(C5CC5)n4)C3)nc(C)n2)ccc1F (stereo not drawn)
14,10 to 100,COc1cc(CNC(=O)c2cc(C3=NOC(c4ccn(CC(=O)NC(C)C)c(=O)c4)C3)nc(C)n2)ccc1F (stereo not drawn)
15,> 1000,COc1ccc(CNC(=O)c2cc(C3=NOC(C)(c4ccccc4)C3)ccn2)cc1 (stereo not drawn)
16,> 1000,COc1cc(CNC(=O)c2cc(C3=NO[C@H](c4ccc(CO)cc4)C3)nc(C)n2)ccc1F
17,10 to 100,COc1ccc(C2CC(c3ccnc(C(=O)NCc4cccc(OC)c4)c3)=NO2)cc1 (stereo not drawn)
18,< 10,COc1ccc(CNC(=O)c2cc(C3=NO[C@H](c4ccc(OCCO)cc4)C3)nc(C)n2)cc1
19,10 to 100,COc1cc(CNC(=O)c2cc(C3=NOC(c4ccn(C)c(=O)c4)C3)nc(C)n2)ccc1F (stereo not drawn)
20,10 to 100,COc1cc(CNC(=O)c2cc(C3=NOC(c4ccc(C(N)=O)nn4)C3)nc(C)n2)ccc1F (stereo not drawn)
21,< 10,COc1cc(CNC(=O)c2cc(C3=NOC(c4cccc(CN5CCOCC5)c4)C3)nc(C)n2)ccc1F (stereo not drawn)

# — patent US9029409B2, “Isoxazolines as therapeutic agents” (AbbVie Inc., priority 2011, dated 2015)
